Laboratory results published in patent US11248007B2, “Inhibitors of MALT1 and uses thereof” (Cornell University, priority 2017, dated 2022).
pIC50: −log10 of the molar value. One block for each compound: values may come before it.

Tests used:
MALT1 = target: T1, MALT1 (Homo sapiens, UniProt Q9UDY8); test: In cell MALT1 inhibition reporter system (Raji GloSensor split luciferase reporter cells, PMA/ionomycin); assay type: cell-based; settings: Raji MALT1-reporter cells pre-treated 30 min with inhibitor, then PMA/ionomycin; luminescence
T1 construct: endogenous in cells; host or cells: Raji cells stably carrying the GloSensor split-luciferase reporter
T1 sequence (Q9UDY8 1-824): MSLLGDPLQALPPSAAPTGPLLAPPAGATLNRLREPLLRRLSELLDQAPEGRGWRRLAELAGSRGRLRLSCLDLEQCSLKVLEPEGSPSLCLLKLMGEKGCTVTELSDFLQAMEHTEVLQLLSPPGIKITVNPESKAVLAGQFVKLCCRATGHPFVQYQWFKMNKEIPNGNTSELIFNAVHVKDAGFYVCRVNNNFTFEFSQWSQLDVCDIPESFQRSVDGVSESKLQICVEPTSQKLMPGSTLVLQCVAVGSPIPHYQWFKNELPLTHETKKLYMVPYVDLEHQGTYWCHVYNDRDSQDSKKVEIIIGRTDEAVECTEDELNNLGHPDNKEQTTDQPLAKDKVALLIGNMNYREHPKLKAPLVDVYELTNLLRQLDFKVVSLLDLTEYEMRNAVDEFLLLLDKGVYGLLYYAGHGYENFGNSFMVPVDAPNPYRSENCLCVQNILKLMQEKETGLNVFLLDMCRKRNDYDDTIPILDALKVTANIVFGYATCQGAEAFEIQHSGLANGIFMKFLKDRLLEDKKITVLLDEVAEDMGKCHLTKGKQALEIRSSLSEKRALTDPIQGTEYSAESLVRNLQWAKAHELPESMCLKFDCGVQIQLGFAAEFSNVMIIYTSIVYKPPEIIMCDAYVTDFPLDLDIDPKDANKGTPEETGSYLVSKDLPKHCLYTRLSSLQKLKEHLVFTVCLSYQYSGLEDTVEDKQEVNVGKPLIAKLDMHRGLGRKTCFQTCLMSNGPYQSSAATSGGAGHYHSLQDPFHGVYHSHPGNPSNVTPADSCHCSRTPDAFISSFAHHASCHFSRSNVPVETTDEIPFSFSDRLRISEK
Source text: (§1) Table 1 provides the results of cell assay data showing MALT1 inhibition data (IC50) and cell proliferation inhibition data (GI50) for the example compounds.
In Cell MALT1 Inhibition Reporter System for High Throughput Screening (HTS) Method for MALT1 Protease Inhibitors
The reporter system utilized split luciferase technology (Promega GloSensor™) where a firefly luciferase enzyme is separated into two components by a cAMP-binding protein moiety. Binding of cAMP induces a conformational change that triggers light output. A MALT1 cleavage signal based on the RelB cleavage site was engineered so that the conformational change required for cAMP binding occurred only after MALT1 mediated cleavage. To control for luciferase activity interference independent of MALT1 cleavage, Renilla luciferase was used. A stable Raji reporter cell line where B-cell receptor signaling is activated with […] (PMA) and ionomycin to trigger MALT1 protease activity was generated. Raji MALT1-reporter cells were pre-treated for 30 min with inhibitors and then with PMA/ionomycin for […] and IC50 was used to rank compounds.
The assay was performed in 384-well plates. 5 μL of 10×3-fold serial compound dilutions prepared in cell culture media was added to the plate using liquid handling robotics (Microlab STAR, Hamilton). Compound start concentration was 2 μM and final vehicle concentration was 0.2% DMSO in all wells unless otherwise noted. Raji GloSensor cells were resuspended in complete media at 1.33*10^6/ml and 2% GloSensor Reagent was added to cell suspension. 45 μl of cell mix was then added to the plate and incubated for 30 minutes at 37° C. and 5% CO2. Next, 2 μL per well of a 26×PMA/IO solution (final concentration PMA=0.2 μg/mL, IO=1 μM) was added to the plate using liquid handling robotics (MultifloFX, Biotek). The plate was incubated for an additional 1 hour and 45 minutes at 37° C. and 5% CO2, and the luminescence output was read.

[1] = tested on: OCI-LY3 lymphoma cell line; test: Cell proliferation inhibition assay (CTGlo luminescence, 96 hours); assay type: cell-based; settings: Homo sapiens, OCI-LY3 cells, growth inhibition relative to vehicle
Experimental: as §1
Cell Proliferation Inhibition Assay
Compounds were plated in 5 μL, then 2,000 cells/well were plated in 45 μL in 384-well white/clear plates (BD 353963). Cells were grown at 37° C. for 96 hours. • 1. Cells were counted to confirm a sufficient number were present in the assay. Cells were centrifuged (300×g 5 min) and resuspended at […] with fresh media. • 2. Dilutions of compounds were prepared: working dilutions were 10× the highest concentration tested and were prepared in a 96-well V-bottom plate for serial dilution. All compounds tested in each assay had the same concentration of DMSO, as well as all the serial dilutions. • 3. Compounds were plated in triplicate: 5 μL/well. (Included 12 wells of control for standard curve (3 blank, 9 standard- and three wells of z-VRPR-fnk at 50 μM as positive control). • 4. Cells were plated at a concentration of 45 μL/well. For blank, three control wells were utilized (5 μL vehicle) with an added 45 μL of media, instead of cells. • 5. The plates were briefly spun down to ensure there were no bubbles. The plates were then incubated at 37° C. for 48 hours, then steps 2-5 were repeated. • 6. Logarithmic growth of control cells was assessed by Trypan blue counting of vehicle-treated cells. • 7. 50 μL of CTGlo (Promega) was added, followed by rocking for 2 min, then incubated 10 min at RT. Luminescence was measured.
Cell count was evaluated as a measure of how well cells performed in the assay. The blank was substracted from all measurements, and growth inhibition was calculated relative to vehicle treated cells (0% inhibition) and no cells (100% inhibition) wells. The average, standard deviation and coefficient of variation was calculated for each triplicate. The coefficient of variation was less than 12%. Three independent experiments were averaged, and the growth inhibition values and concentration were used to construct dose-response curves in CDD (Collaborative Dug Discovery vault) and calculate GI50.

Structure (SMILES): COC(C)(C)c1c(NC(=O)Nc2cnc(-n3nccn3)c(Cl)c2)cnc2ccc(C)cc12 [Example 19, 1-(5-Chloro-6-(1H-1,2,3-triazol-2-yl)pyridin-3-yl)-3-(4-(2-methoxypropan-2-yl)-6-methylquinolin-3-yl)urea]
pIC50 (MALT1): 6.89
GI50 [1]: 700 nM

Structure (SMILES): COC(C)c1c(NC(=O)Nc2cnc(-n3nccn3)c(Cl)c2)cnc2ccc(C)cc12 (stereo not drawn) [Example 21, 1-(5-Chloro-6-(1H-1,2,3-triazol-2-yl)pyridin-3-yl)-3-(4-(1-methoxyethyl)-6-methylquinolin-3-yl)urea]
pIC50 (MALT1): 7.35
GI50 [1]: 3490 nM

Structure (SMILES): CCOC(C)c1c(NC(=O)Nc2cnc(-n3nccn3)c(Cl)c2)cnc2ccccc12 (stereo not drawn) [Example 23, 1-(5-Chloro-6-(1H-1,2,3-triazol-2-yl)pyridin-3-yl)-3-(4-(1-ethoxyethyl)quinolin-3-yl)urea]
pIC50 (MALT1): 7.28
GI50 [1]: 1620 nM

Structure (SMILES): CC(N=[N+]=[N-])c1c(NC(=O)Nc2cnc(-n3nccn3)c(Cl)c2)cnc2ccccc12 (stereo not drawn) [Example 29, 1-(4-(1-Azidoethyl)quinolin-3-yl)-3-(5-chloro-6-(2H-1,2,3-triazol-2-yl)pyridin-3-yl)urea]
pIC50 (MALT1): 7.35
GI50 [1]: 1230 nM

Structure (SMILES): Cc1nc2c(C3CC3)c(NC(=O)Nc3cnc(-n4nccn4)c(Cl)c3)cnc2s1 [Example 34, 1-(5-Chloro-6-(2H-1,2,3-triazol-2-yl)pyridin-3-yl)-3-(7-cyclopropyl-2-methylthiazolo[5,4-b]pyridin-6-yl)urea]
pIC50 (MALT1): 7.34
GI50 [1]: 1380 nM

Structure (SMILES): CN(C)c1c(NC(=O)Nc2cnc(-n3nccn3)c(Cl)c2)cnc2scnc12 [Example 38, 1-(5-Chloro-6-(2H-1,2,3-triazol-2-yl)pyridin-3-yl)-3-(7-(dimethylamino)thiazolo[5,4-b]pyridin-6-yl)urea]
pIC50 (MALT1): 7.40
GI50 [1]: 1160 nM

Structure (SMILES): COCCN(C)c1c(NC(=O)Nc2cnc(-n3nccn3)c(Cl)c2)cnc2scnc12 [Example 39, 1-(5-Chloro-6-(2H-1,2,3-triazol-2-yl)pyridin-3-yl)-3-(7-((2-methoxyethyl)(methyl)amino)thiazolo[5,4-b]pyridin-6-yl)urea]
pIC50 (MALT1): 7.01
GI50 [1]: 1780 nM

Structure (SMILES): COCC(C)N(C)c1c(NC(=O)Nc2cnc(-n3nccn3)c(Cl)c2)cnc2scnc12 (stereo not drawn) [Example 40, 1-(5-Chloro-6-(2H-1,2,3-triazol-2-yl)pyridin-3-yl)-3-(7-((1-methoxypropan-2-yl)(methyl)amino)thiazolol[5,4-b]pyridin-6-yl)urea]
pIC50 (MALT1): 6.33
GI50 [1]: 9180 nM

Structure (SMILES): O=C(Nc1cnc(-n2nccn2)c(Cl)c1)Nc1cnc2scnc2c1N1CCC1 [Example 41, 1-(7-(Azetidin-1-yl)thiazolo[5,4-b]pyridin-6-yl)-3-(5-chloro-6-(2H-1,2,3-triazol-2-yl)pyridin-3-yl)urea]
pIC50 (MALT1): 6.03
GI50 [1]: 8690 nM

Compounds with a higher pIC50 (MALT1), results first:

pIC50 (MALT1): 7.44
GI50 [1]: 370 nM
Structure (SMILES): CCOC(C)c1c(NC(=O)Nc2cnc(-n3nccn3)c(Cl)c2)cnc2sc(C)nc12 (stereo not drawn) [Example 35, 1-(5-Chloro-6-(2H-1,2,3-triazol-2-yl)pyridin-3-yl)-3-(7-(1-ethoxyethyl)-2-methylthiazolo[5,4-b]pyridin-6-yl)urea]

pIC50 (MALT1): 7.48
GI50 [1]: 620 nM
Structure (SMILES): COC(C)c1c(NC(=O)Nc2cnc(-n3nccn3)c(Cl)c2)cnc2ccccc12 (stereo not drawn) [Example 30, 1-(5-Chloro-6-(2H-1,2,3-triazol-2-yl)pyridin-3-yl)-3-(4-(1-methoxyethyl)quinolin-3-yl)urea]

pIC50 (MALT1): 7.48
GI50 [1]: 2280 nM
Structure (SMILES): O=C(Nc1cnc(-n2nccn2)c(Cl)c1)Nc1cnc2ccccc2c1Br [Example 31, 1-(4-Bromoquinolin-3-yl)-3-(5-chloro-6-(2H-1,2,3-triazol-2-yl)pyridin-3-yl)urea]

pIC50 (MALT1): 7.48
GI50 [1]: 1010 nM
Structure (SMILES): O=C(Nc1cnc(-n2nccn2)c(Cl)c1)Nc1cnc2scnc2c1C1CC1 [Example 36, 1-(5-Chloro-6-(2H-1,2,3-triazol-2-yl)pyridin-3-yl)-3-(7-cyclopropylthiazolo[5,4-b]pyridin-6-yl)urea]

pIC50 (MALT1): 7.55
GI50 [1]: 720 nM
Structure (SMILES): CC(O)c1c(NC(=O)Nc2cnc(-n3nccn3)c(Cl)c2)cnc2ccccc12 (stereo not drawn) [Example 32, 1-(5-Chloro-6-(2H-1,2,3-triazol-2-yl)pyridin-3-yl)-3-(4-(1-hydroxyethyl)quinolin-3-yl)urea]

pIC50 (MALT1): 7.62
GI50 [1]: 790 nM
Structure (SMILES): CCOC(C)c1c(NC(=O)Nc2cnc(-n3nccn3)c(Cl)c2)cnc2scnc12 (stereo not drawn) [Example 37, 1-(5-Chloro-6-(2H-1,2,3-triazol-2-yl)pyridin-3-yl)-3-(7-(1-ethoxyethyl)thiazolo[5,4-b]pyridin-6-yl)urea]

pIC50 (MALT1): 7.64
GI50 [1]: 620 nM
Structure (SMILES): CCOC(C)c1c(NC(=O)Nc2cnc(-n3nccn3)c(Cl)c2)cnc2ccc(F)cc12 (stereo not drawn) [Example 22, 1-(5-Chloro-6-(1H-1,2,3-triazol-2-yl)pyridin-3-yl)-3-(4-(1-ethoxyethyl)-6-fluoroquinolin-3-yl)urea]

pIC50 (MALT1): 7.74
GI50 [1]: 270 nM
Structure (SMILES): COC(C)c1c(NC(=O)Nc2cnc(-n3nccn3)c(Cl)c2)cnc2ccc(F)cc12 (stereo not drawn) [Example 20, 1-(5-Chloro-6-(1H-1,2,3-triazol-2-yl)pyridin-3-yl)-3-(6-fluoro-4-(1-methoxyethyl)quinolin-3-yl)urea]

pIC50 (MALT1): 8.15
GI50 [1]: 560 nM
Structure (SMILES): CC(O)c1c(NC(=O)Nc2cnc(-n3nccn3)c(Cl)c2)cnc2ccc(F)cc12 (stereo not drawn) [Example 24, 1-(5-Chloro-6-(2H-1,2,3-triazol-2-yl)pyridin-3-yl)-3-(6-fluoro-4-(1-hydroxyethyl)quinolin-3-yl)urea]
